Common to all, as to assay: ATPase enzyme assay
In assay [1] the target is T1, ATP-dependent RNA helicase DHX29 (Homo sapiens, UniProt Q7Z478).
T1 sequence (Q7Z478 whole entry): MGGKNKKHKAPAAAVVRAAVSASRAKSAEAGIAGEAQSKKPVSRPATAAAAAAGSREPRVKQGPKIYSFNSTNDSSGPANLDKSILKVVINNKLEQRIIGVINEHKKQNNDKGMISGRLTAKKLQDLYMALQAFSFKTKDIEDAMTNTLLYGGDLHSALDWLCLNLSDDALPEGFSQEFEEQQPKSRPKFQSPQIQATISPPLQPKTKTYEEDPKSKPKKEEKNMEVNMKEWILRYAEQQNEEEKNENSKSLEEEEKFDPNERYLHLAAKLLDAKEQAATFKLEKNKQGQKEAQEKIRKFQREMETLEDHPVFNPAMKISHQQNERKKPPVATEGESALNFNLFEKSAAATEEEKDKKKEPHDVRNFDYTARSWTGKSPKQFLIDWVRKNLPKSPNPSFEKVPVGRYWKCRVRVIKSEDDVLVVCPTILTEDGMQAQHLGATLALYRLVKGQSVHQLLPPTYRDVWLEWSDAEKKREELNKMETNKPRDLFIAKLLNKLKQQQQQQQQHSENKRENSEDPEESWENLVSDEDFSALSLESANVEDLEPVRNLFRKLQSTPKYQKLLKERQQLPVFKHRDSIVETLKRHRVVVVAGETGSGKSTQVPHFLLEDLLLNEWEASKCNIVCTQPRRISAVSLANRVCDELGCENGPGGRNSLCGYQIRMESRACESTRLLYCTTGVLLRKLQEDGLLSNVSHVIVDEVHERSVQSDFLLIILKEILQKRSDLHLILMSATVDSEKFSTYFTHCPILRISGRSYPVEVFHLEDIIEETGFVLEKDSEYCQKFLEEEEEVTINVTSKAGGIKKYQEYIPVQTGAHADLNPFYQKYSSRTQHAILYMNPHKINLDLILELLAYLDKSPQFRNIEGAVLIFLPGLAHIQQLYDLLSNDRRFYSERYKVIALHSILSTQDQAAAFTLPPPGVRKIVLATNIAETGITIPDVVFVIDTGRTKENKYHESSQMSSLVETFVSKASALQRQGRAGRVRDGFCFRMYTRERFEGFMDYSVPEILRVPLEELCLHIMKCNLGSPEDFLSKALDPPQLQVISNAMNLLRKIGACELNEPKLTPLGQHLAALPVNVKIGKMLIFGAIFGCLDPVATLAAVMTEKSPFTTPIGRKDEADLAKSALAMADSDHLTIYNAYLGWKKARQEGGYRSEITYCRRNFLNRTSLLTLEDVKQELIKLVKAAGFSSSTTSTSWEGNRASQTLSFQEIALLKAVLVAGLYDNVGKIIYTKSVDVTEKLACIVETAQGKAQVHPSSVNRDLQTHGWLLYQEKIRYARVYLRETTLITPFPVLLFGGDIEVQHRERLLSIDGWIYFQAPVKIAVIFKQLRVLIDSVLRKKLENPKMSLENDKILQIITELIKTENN
As to the method: (§1) Inhibitory activity was assessed under the following conditions: 350 uM ATP/1.5 ug mL−1 RNA indicated by black; 35 uM ATP/1.5 ug mL−1 RNA indicated by red; 3.5 uM ATP/1.5 ug mL−1 RNA indicated by blue; 35 uM ATP/60 ug mL−1 RNA indicated by green (n = 4, mean +/- standard deviation).

Assay [2] has as its target Eukaryotic initiation factor 4A-I (Homo sapiens, UniProt P60842). As to the method:
as §1

For assay [3], the target named is Eukaryotic initiation factor 4A-II (Homo sapiens, UniProt Q14240). As to the method:
as §1

For assay [4], the target named is Eukaryotic initiation factor 4A-III (Homo sapiens, UniProt P38919). How it is done:
as §1

Assay [5] deals with U5 small nuclear ribonucleoprotein 200 kDa helicase (Homo sapiens, UniProt O75643). As to the method: as §1
Sequence of U5 small nuclear ribonucleoprotein 200 kDa helicase (O75643 whole entry): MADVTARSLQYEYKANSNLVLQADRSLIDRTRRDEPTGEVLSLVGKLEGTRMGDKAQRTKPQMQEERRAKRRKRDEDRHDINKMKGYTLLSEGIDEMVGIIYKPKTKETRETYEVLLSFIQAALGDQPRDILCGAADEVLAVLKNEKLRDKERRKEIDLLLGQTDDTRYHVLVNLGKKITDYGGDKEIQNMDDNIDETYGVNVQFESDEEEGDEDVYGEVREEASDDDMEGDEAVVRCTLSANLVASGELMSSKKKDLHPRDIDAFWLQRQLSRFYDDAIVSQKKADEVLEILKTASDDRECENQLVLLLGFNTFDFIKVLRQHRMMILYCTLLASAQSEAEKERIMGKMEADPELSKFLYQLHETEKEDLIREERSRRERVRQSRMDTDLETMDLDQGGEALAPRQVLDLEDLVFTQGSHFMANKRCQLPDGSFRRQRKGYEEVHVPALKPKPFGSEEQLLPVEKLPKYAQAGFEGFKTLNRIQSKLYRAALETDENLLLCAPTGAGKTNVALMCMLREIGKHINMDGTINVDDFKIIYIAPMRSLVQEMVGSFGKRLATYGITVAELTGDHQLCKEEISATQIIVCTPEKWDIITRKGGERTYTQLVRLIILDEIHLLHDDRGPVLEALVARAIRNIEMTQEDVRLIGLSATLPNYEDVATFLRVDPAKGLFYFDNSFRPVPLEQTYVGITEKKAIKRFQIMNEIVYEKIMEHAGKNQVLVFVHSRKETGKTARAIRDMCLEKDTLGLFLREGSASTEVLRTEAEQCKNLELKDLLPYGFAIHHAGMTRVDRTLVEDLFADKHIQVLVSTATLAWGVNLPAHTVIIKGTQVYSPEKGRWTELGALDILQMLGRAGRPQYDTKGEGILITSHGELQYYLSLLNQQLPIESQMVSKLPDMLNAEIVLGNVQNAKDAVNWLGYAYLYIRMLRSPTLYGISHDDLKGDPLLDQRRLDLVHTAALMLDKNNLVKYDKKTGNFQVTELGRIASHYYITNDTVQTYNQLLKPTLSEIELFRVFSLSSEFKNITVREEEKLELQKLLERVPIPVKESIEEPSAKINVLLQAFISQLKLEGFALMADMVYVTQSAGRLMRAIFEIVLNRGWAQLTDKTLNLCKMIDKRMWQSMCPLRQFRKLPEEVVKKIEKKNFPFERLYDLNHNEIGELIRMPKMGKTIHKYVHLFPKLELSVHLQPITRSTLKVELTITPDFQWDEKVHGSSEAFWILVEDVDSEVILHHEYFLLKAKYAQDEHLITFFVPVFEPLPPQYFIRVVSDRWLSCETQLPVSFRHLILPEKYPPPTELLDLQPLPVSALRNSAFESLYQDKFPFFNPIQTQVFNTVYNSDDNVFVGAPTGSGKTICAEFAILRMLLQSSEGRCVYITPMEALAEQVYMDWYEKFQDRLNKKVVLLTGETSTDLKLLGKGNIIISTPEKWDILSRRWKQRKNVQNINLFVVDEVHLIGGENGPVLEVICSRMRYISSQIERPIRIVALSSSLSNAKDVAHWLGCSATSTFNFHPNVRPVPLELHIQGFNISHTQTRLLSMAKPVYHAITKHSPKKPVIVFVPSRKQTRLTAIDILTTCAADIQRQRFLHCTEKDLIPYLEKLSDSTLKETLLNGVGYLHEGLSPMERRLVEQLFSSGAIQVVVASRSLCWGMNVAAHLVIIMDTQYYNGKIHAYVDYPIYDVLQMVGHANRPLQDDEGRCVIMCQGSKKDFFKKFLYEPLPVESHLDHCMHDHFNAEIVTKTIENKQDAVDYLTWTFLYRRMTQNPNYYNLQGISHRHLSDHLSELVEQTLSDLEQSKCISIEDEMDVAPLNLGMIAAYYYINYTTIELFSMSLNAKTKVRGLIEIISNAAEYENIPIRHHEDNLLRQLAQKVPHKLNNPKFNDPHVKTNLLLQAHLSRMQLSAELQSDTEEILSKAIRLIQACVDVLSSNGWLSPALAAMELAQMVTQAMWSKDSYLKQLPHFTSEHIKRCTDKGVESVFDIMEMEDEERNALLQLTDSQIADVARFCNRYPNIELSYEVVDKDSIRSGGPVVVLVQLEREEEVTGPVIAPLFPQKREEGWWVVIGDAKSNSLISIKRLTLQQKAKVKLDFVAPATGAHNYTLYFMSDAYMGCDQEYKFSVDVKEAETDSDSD

Sequence of Eukaryotic initiation factor 4A-III (P38919 whole entry): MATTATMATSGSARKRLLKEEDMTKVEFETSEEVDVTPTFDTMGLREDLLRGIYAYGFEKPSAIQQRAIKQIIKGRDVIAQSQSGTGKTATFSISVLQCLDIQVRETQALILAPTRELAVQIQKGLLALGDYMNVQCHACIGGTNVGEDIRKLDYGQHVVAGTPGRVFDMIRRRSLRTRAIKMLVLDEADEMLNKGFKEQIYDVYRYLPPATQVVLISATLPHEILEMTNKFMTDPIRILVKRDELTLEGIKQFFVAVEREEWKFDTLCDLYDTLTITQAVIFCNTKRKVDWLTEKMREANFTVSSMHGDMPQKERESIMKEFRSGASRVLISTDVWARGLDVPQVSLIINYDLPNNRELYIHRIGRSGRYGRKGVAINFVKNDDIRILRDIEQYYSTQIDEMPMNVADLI
Sequence of Eukaryotic initiation factor 4A-II (Q14240 whole entry): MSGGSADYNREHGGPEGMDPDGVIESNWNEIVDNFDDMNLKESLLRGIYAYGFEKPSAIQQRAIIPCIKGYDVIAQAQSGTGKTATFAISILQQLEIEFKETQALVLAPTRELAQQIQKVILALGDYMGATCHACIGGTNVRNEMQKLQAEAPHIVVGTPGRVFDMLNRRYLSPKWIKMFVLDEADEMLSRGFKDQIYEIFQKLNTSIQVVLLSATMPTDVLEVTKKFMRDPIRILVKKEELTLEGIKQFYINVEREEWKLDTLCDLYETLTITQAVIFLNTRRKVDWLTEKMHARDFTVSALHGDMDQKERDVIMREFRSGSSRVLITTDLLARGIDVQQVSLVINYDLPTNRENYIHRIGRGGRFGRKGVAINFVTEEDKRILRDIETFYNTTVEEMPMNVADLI
Sequence of Eukaryotic initiation factor 4A-I (P60842 whole entry): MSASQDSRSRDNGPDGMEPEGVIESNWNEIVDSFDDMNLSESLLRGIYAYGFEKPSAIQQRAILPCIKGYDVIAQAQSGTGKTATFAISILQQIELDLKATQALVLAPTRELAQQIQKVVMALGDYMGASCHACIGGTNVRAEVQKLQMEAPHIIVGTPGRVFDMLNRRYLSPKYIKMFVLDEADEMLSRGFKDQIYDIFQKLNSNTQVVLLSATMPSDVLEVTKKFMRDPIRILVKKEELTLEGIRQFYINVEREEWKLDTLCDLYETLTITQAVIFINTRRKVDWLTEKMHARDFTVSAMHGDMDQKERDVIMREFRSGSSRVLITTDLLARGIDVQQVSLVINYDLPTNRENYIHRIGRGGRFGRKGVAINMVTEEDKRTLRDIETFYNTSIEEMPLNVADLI

In the case of `O=C(c1cnn2cc(Br)ccc12)N1CCN(C(=O)c2ccc(Br)cc2)[C@@H](c2ccc(Cl)cc2)C1` [eIF4A3 inhibitor, 2], the IC50 in assay [1] was more than 100 µM; in assay [2], more than 100 µM; in assay [3], more than 100 µM; in assay [4] it was 0.11 µM; in assay [5], more than 100 µM.

Broadly, the IC50 is the concentration at which inhibition is half-maximal.

These data come from BindingDB's records for doi:10.1021/acschembio.7b00041 (Bc Cancer Agency, 2017).
